“And” between values parts separate entries of the source, which are not always exact repeats. Equal values may be shown once. “Also recorded” adds a separate entry of the source.
Columns and labels:
[1] = tested on: Tg(APPSWE)2576KhaTg(Prnp-MAPT*P301L)JNPL3HImc Alzheimer's disease model double transgenic mice; assay: Number and size of senile plaques in cerebrum coronal cut surfaces of Alzheimer's disease model double transgenic mice (HE, Aβ40, Aβ42 staining); type: in vivo, mouse
[2] = tested on: Tg(APPSWE)2576KhaTg(Prnp-MAPT*P301L)JNPL3HImc Alzheimer's disease model double transgenic mice; assay: Number of nerve cells having AT8 immunostaining-positive neurofibrillary tangles in Alzheimer's disease model double transgenic mice; type: in vivo, mouse
[3] = individual mouse, diameter 50 μm or smaller, 5 mg/kg oral every day from one year old, sampled at 730 to 745 days old, 5 mg/kg
[4] = individual mouse, diameter 100 μm or larger, 5 mg/kg oral every day from one year old, sampled at 730 to 745 days old, 5 mg/kg
[5] = individual mouse, diameter between 50 μm and 100 μm, 5 mg/kg oral every day from one year old, sampled at 730 to 745 days old, 5 mg/kg
[6] = individual mouse, 5 mg/kg oral every day from one year old, sampled at 730 to 745 days old, 5 mg/kg

N#Cc1cc(-c2nc3c(O)ncnc3s2)ccc1Oc1ccccc1 [compound A, 5-(7-hydroxythiazolo[5,4-d]pyrimidin-2-yl)-2-phenoxy-benzonitrile] was tested, and the “Large-sized senile plaques in the hippocampus compared with placebo control group (photographs)” value ([1]; HE staining, Aβ40 and Aβ42 immunostaining, FIG. 6 vs FIG. 5) was “clearly fewer”, the “Number of large-sized senile plaques per one cerebrum coronal cut surface” value ([1]; group average±standard deviation, 4 mice, 5 mg/kg oral daily about one year, control 26.9±12.3) was 11.1±5.9 and the “Number of medium-sized senile plaques per one cerebrum coronal cut surface” value ([1]; group average±standard deviation, 4 mice, 5 mg/kg oral daily about one year, control 44.3±14.5) was 30.9±20.5. The “Number of small-sized senile plaques per one cerebrum coronal cut surface” value ([1]; group average±standard deviation, 4 mice, 5 mg/kg oral daily about one year, control 88.3±35.2) was 104.4±36.8, the “Number of small senile plaques, entorhinal cortex coronal cut surface” value [1, 3] was 96 and 78 and 110 and 164 and the “Number of small senile plaques, mammillary body coronal cut surface” value [1, 3] was 113 and 38 and 106 and 130. The “Number of large-sized senile plaques, entorhinal cortex coronal cut surface” value [1, 4] was 16 and 10 and 11 and 2, the “Number of large-sized senile plaques, mammillary body coronal cut surface” value [1, 4] was 21 and 12 and 5 and the “Number of medium-sized senile plaques, entorhinal cortex coronal cut surface” value [1, 5] was 78 and 24 and 31 and 14. The “Number of medium-sized senile plaques, mammillary body coronal cut surface” value [1, 5] was 33 and 12 and 25 and 30, the “Number of large-sized senile plaques compared with the control group” value ([1]; p=0.013, Mann-Whitney U test, 5 mg/kg oral daily, FIG. 7, 5 mg/kg) was “significantly smaller; also recorded: significantly suppresses; also recorded: especially suppressed” and the “Number of medium-sized senile plaques compared with the control group” value ([1]; p=0.036, Mann-Whitney U test, 5 mg/kg oral daily, FIG. 7, 5 mg/kg) was “significantly smaller; also recorded: significantly suppresses; also recorded: especially suppressed”. The “Number of small senile plaques compared with the control group” value ([1]; p=0.400, Mann-Whitney U test, 5 mg/kg oral daily, FIG. 7) was “Any significant difference was not observed”, the “Tangle number as percentage of that of the control group” value ([2]; FIG. 10, 5 mg/kg oral daily) was 36% and the “Number of nerve cells having AT8 immunostaining-positive neurofibrillary tangles per one cerebrum coronal cut surface” value ([2]; group average±standard deviation, 4 mice, 5 mg/kg oral daily about one year, control 209.9±46.0) was 77.0±67.1. The “Number of nerve cells having AT8 immunostaining-positive neurofibrillary tangles, amygdaloid nucleus maximum diameter coronal cut surface” value [2, 6] was 103 and 175 and 13 and 18, the “Number of nerve cells having AT8 immunostaining-positive neurofibrillary tangles, hypothalamus coronal cut surface” value [2, 6] was 149 and 119 and 26 and 13 and the “Number of nerve cells having AT8 immunostaining-positive neurofibrillary tangles compared with the control group” value ([2]; p=0.016, Mann-Whitney U test, amygdaloid nucleus and hypothalamus, 5 mg/kg oral daily, FIG. 9, 10, 5 mg/kg) was “significantly smaller; also recorded: markedly suppresses; also recorded: fewer; also recorded: significantly lower”.

— patent publication US20180117047A1, “DRUG FOR PREVENTING AND/OR TREATING DEMENTIA” (NATIONAL UNIVERSITY CORPORATION TOTTORI UNIVERSITY, priority 2015, published 2018)
